In patent US20230113761A1, “METHOD AND COMPOSITION FOR MIMICKING BIOLOGICAL BENEFITS OF CALORIC RESTRICTION BY ADMINISTRATION OF B-AMINOISOBUTYRIC ACID” (NANJING NUTRABUILDING BIO-TECH CO., LTD., priority 2021, published 2023):

Legend:
[1] = Body weight and body composition (fat mass, lean mass, free water) of high-fat diet mice during 8 weeks of feeding intervention; type: in vivo; conditions: for fat mass: FIG. 2
Description: (§1) Mice were divided into groups and named after the diet they consumed. Group A mice were fed ad libitum (control), Group B mice were on high-fat diet (HFD), Group C mice were fed restricted amount of the HFD diet to achieve caloric restriction (HFD+CR), and Group D mice were fed high-fat diet and supplemented with 150 mg/kg β-aminoisobutyric acid (HFD+BAIBA). All groups of mice were housed individually, and fed for months of interventions and had free access to water. Health status was monitored during the intervention.
(§2) The four groups of mice were fed for eight weeks, body weight was measured weekly, and body fat mass, lean mass and free water mass were also measured by Body Composition Analyzer to monitor body composition every week. At the end of 8 weeks of treatment, blood was collected for each group of mice, and parameters such as total cholesterol (TCHO), triglyceride (TG), low-density lipoprotein (LDL) and high-density lipoprotein (HDL) were detected. Data were collected and subject to statistical analysis.

[2] = Blood lipid parameters (TCHO, TG, LDL, HDL) of high-fat diet mice after 8 weeks of treatment; type: in vivo; conditions: group D (HFD+BAIBA, 150 mg/kg) vs group B (HFD)
Description: as §1, §2

CC(CN)C(=O)O (stereo not drawn) [BAIBA, β-aminoisobutyric acid]
fat mass ([1]; group D (HFD+BAIBA, 150 mg/kg) vs group B (HFD), 8 weeks, Body Composition Analyzer): decreased compared to group B (HFD)
free water content ([1]; group D (HFD+BAIBA, 150 mg/kg) vs group B (HFD), 8 weeks, FIG. 4): significantly higher than that in group B (HFD)
lean mass ([1]; group D (HFD+BAIBA, 150 mg/kg) vs group C (HFD+CR), by the 8th week, FIG. 3): significantly more than that of group C (HFD+CR)
fat mass ([1]; group D (HFD+BAIBA, 150 mg/kg) vs group C (HFD+CR), from week 5 of feeding intervention): less fat mass than group C (HFD+CR)
body weight ([1]; mice on high-fat diet supplemented with 150 mg/kg BAIBA (group D) vs group B (HFD), 8 weeks, measured weekly, FIG. 1): significantly lower than that of group B (HFD)
total cholesterol (TCHO) level ([2]; FIG. 5): significantly lower than that of group B (HFD) and close to that of group C
triglyceride (TG) level ([2]; FIG. 6): significantly lower than that of group B (HFD) and close to that of group C
low-density lipoprotein (LDL) level ([2]; FIG. 7): significantly lower than that of group B (HFD)
high-density lipoprotein (HDL) level ([2]; four groups not significantly different, FIG. 8): higher HDL levles compared to group B (HFD)
